Experimental data taken from US11639364B2, “Potent sialyltransferase inhibitors” (STICHTING RADBOUD UNIVERSITEIT, priority 2018, dated 2023).
Where two headings read alike, the source gives them in different places.

How the values were obtained:
[1] = system: B16-F10 cells; experiment: Inhibition of cell surface sialylation, lectin staining and flow cytometry, B16-F10 cells; assay type: cell-based, Mouse; conditions: three days
Method: (§1) Mouse B16-F10 melanoma cells (ATCC CRL-6475) were cultured in Minimum Essential Medium (MEM) (Gibco, Invitrogen, Carlsbad, Calif.) containing 5% fetal bovine serum (FBS) (Greiner Bio-one, Frickenhausen, Germany), 1% MEM non-essential amino acids (Gibco), 0.15% sodium bicarbonate (Gibco), 1 mM sodium pyruvate (Gibco), 1.5% MEM vitamins (Gibco), 1% antibiotic-antimycotic solution (50 U/ml penicillin, 50 μg/ml streptomycin and 125 ng/ml amphotericin B) (Gibco). The murine 9464D neuroblastoma cell line was cultured in Dulbecco's Modified Eagle's Medium (DMEM, Glutamax, Gibco) with 10% FBS, 1% non-essential amino acids, 50 μM 2-mercaptoethanol (Sigma-Aldrich) and 1% antibiotic-antimycotic solution (Kroesen et al., 2014, DOI: 10.1002/ijc.28463, Stauffer et al., 2012, DOI: 10.3109/07357907.2012.664670). The murine EL4 T lymphocyte cell line (ATCC TIB-39) was cultured in Iscove's Modified Dulbecco's Medium (IMDM, Gibco) supplemented with 5% FBS and 1% antibiotic-antimycotic solution. Human HEK293 (ATCC CRL-1573) kidney cells and human HeLa (ATCC CCL-2) cervical cancer cells were cultured in DMEM containing 10% FBS, 2 mM glutamine (Lonza, Walkersville, Md.) and 1% antibiotic-antimycotic solution. Human monocytic THP-1 cells (TIB-202, ATCC) were cultured in RRMI-1640 medium (Gibco) supplemented with 10% FBS, 2 mM glutamine and 1% antibiotic-antimycotic solution. All cell lines were cultured in a humidified 5% CO2 incubator at 37° C.
(§2) To assess the effect of the synthesized compounds on cell surface sialylation, different murine and human cell lines were cultured for three days in the presence of 0-204.8 μM amide and carbamate fluorine sialic acids. Cells treated with an equal final percentage of DMSO were used as control and all cells were subjected to lectin staining and flow cytometry as described below. To investigate the longevity of the effect of the fluorine sialic acids on cell surface sialylation, B16-F10 cells treated with 25.6 μM or 51.2 μM were thoroughly washed with medium to remove fluorine sialic acids from the culture and reseeded. During a period of six days, cells were harvested every day and sialylation was assessed by flow cytometry.
(§3) For the lectin staining, all cells were harvested and washed with 1× carbo-free blocking solution (Vector Laboratories, Inc., Burlingame, Calif., USA) and stained for 45 minutes at 4° C. in 1× carbo-free blocking solution containing 1 mM CaCl2), 1 mM MgCl2 and biotinylated MALII (5 μg/ml), SNA-1 (1 μg/ml) or PNA (5 μg/ml) all obtained from Vector Laboratories Inc. MALII recognizes α2,3-linked sialic acids, SNA-1 recognizes α2,6-linked sialic acids and PNA binds to terminal 3-galactose. In addition, B16-F10 cells were stained with 2 μg/ml biotinylated AAL (α-linked Fucose), LCA (α-linked Mannose), PHA-L (complex glycans), GSL-I (α-linked Galactose and N-Acetylgalactosamine), WGA (chitobiose), SJA (β-linked Galactose and N-Acetylgalactosamine) and PSA (Glucose and Mannose) purchased from Vector Laboratories Inc. Next, the cells were washed thrice in PBA (1×PBS, 1% BSA, and 0.02% sodium azide) and stained for 10 minutes at 4° C. with 2 μg/ml streptavidin-phycoerythrin (PE) (BD Pharmingen, Franklin Lakes, N.J., USA). The cells were washed thrice again with PBA and fluorescence was assessed using a CyAn ADP flow cytometer (BD Biosciences, San Jose, Calif.) followed by analysis with FlowJo software (Tree Star Inc., Ashland, Oreg.). Untreated cells stained with streptavidin-PE only served as background fluorescence control. The percentages lectin binding was calculated by normalizing the mean fluorescence intensity values from the treated cells with the DMSO controls.
(§4) IC50 values and statistics were calculated using Prism 5.03 (GraphPad Software, Inc., La Jolla, Calif.). Statistical significance between the different groups was calculated using one-way ANOVA followed by Bonferroni post-hoc testing and P-values<0.05 were considered significant (p<0.05 *, p<0.01 **, p<0.001 ***). […]

[2] = system: THP-1 cells; experiment: Inhibition of cell surface sialylation, lectin staining and flow cytometry, THP-1 cells; assay type: cell-based, Human; conditions: three days
Method: as §1, §2, §3, §4

[3] = system: HEK293 cells; experiment: Inhibition of cell surface sialylation, lectin staining and flow cytometry, HEK293 cells; assay type: cell-based, Human; conditions: three days
Method: as §1, §2, §3, §4

[4] = system: HeLa cells; experiment: Inhibition of cell surface sialylation, lectin staining and flow cytometry, HeLa cells; assay type: cell-based, human; conditions: three days
Method: as §1, §2, §3, §4

[5] = system: 9464D cells; experiment: Inhibition of cell surface sialylation, lectin staining and flow cytometry, 9464D cells; assay type: cell-based, murine; conditions: three days
Method: as §1, §2, §3, §4

[6] = system: EL4 cells; experiment: Inhibition of cell surface sialylation, lectin staining and flow cytometry, EL4 cells; assay type: cell-based, murine; conditions: three days
Method: as §1, §2, §3, §4

[7] = system: B16-F10 cells; experiment: Inhibition of cell surface sialylation by urea, thiocarbamate and sulphonamide analogues (Example 5); assay type: cell-based, Mouse; conditions: for IC50: three days, 0.1-204.8 μM
Method: as §1, §3
IC50 values and statistics were calculated using Prism 5.03 (GraphPad Software, Inc., La Jolla, Calif.). Statistical significance between the different groups was calculated using one-way ANOVA followed by Bonferroni post-hoc testing and P-values<0.05 were considered significant (p<0.05 *, p<0.01 **, p<0.001 ***).
Analogous to example 3, the inhibitory potency of thiocarbamate 28, urea 29, and sulphonamides 30 and 31 on the sialic acid biosynthesis was assayed. To this end, B16-F10 cells were fed sialic acid precursors for three day at various concentrations (0.1-204.8 μM). The decrease in cell surface sialylation was measured using biotinylated lectins that are specific for binding α2,3-linked (MALII) or α2,6-linked (SNA-1) sialic acid residues, subsequently visualized using streptavidin-phycoerythrin. Conversely, binding of the underlying galactose residue uncovered by desialylation was measured using a galactose specific lectin (Peanut, Agglutinin Lectin, PNA). No inhibition was observed without a P-3Fax-Neu derivative present (DMSO vehicle control). […]

[8] = MALII lectin binding, read-out: α2,3-Sia IC50
[9] = SNA-I lectin binding, read-out: α2,6-Sia IC50
[10] = Example 5, read-out: α2,6-Sia IC50 (SNA)
[11] = Mus musculus, 72 h, MALII lectin binding, read-out: α2,3-Sia IC50
[12] = Mus musculus, 72 h, SNA-I lectin binding, read-out: α2,6-Sia IC50
[13] = Homo sapiens, 72 h, MALII lectin binding, read-out: α2,3-Sia IC50
[14] = Homo sapiens, 72 h, SNA-I lectin binding, read-out: α2,6-Sia IC50
[15] = Example 5, read-out: α2,3-Sia IC50 (MAL)

COC(=O)C1(OC(C)=O)O[C@@H]([C@H](OC(C)=O)[C@@H](COC(C)=O)OC(C)=O)[C@H](NC(C)=O)[C@@H](OC(C)=O)[C@H]1F (stereo partly drawn) [SiaFAc, Methyl 5-(acetamido)-2,4,7,8,9-penta-O-acetyl-3,5-dideoxy-3-fluoro-D-glycero-β-galacto-non-2-ulopyranosonate, reference compound]
IC50 [1, 8]: 26.8 ± 5.72 µM | IC50 [1, 9]: 32.8 ± 3.08 µM | IC50 [2, 8]: 8.5 ± 1.54 µM | IC50 [2, 9]: 10.9 ± 2.47 µM | IC50 [3, 8]: 45.2 ± 8.3 µM | IC50 [3, 9]: 36.7 ± 3.59 µM | IC50 [4, 8]: 53 ± 3.61 µM | IC50 [4, 9]: 34.5 ± 2.18 µM | IC50 [5, 8]: > 102 µM | IC50 [5, 9]: > 102 µM | IC50 [6, 8]: > 102 µM | IC50 [6, 9]: > 102 µM | IC50 [7, 10]: 20.9 µM

CCOC(=O)N[C@@H]1C(OC(C)=O)C(F)C(OC(C)=O)(C(=O)OC)OC1[C@H](OC(C)=O)[C@@H](COC(C)=O)OC(C)=O (stereo partly drawn) [SiaFEt, Methyl 5-(ethylcarbamado)-2,4,7,8,9-penta-O-acetyl-3,5-dideoxy-3-fluoro-D-glycero-β-galacto-non-2-ulopyranosonate]
IC50 [1, 11]: 1.78 ± 0.16 µM | IC50 [1, 12]: 3.87 ± 1.14 µM | IC50 [2, 13]: 0.45 ± 0.74 µM | IC50 [2, 14]: 0.37 µM | IC50 [3, 13]: 2.02 ± 2.72 µM | IC50 [3, 14]: 1.57 ± 4.23 µM | IC50 [4, 13]: 2.02 ± 1.52 µM | IC50 [4, 14]: 1.67 ± 1.31 µM | IC50 [5, 11]: 8.91 ± 2.38 µM | IC50 [5, 12]: 28.1 ± 5.51 µM | IC50 [6, 11]: 42 ± 11 µM | IC50 [6, 12]: 50.6 ± 8.84 µM | IC50 ([7]; Mus musculus, 72 h, Example 5, read-out: α2,3-Sia IC50 (MAL)): 0.929 µM | IC50 ([7]; Mus musculus, 72 h, Example 5, read-out: α2,6-Sia IC50 (SNA)): 3.92 µM

COC(=O)C1(OC(C)=O)OC([C@H](OC(C)=O)[C@@H](COC(C)=O)OC(C)=O)[C@H](NC(=O)OCC(C)C)C(OC(C)=O)C1F (stereo partly drawn) [SiaFiBu, Methyl 5-(isobutylcarbamado)-2,4,7,8,9-penta-O-acetyl-3,5-dideoxy-3-fluoro-D-glycero-β-galacto-non-2-ulopyranosonate]
IC50 [1, 11]: 3.33 ± 0.12 µM | IC50 [1, 12]: 15.1 ± 3.7 µM | IC50 [2, 13]: 0.5 ± 1.34 µM | IC50 [2, 14]: 0.62 ± 1.77 µM | IC50 [3, 13]: 11.4 ± 4.73 µM | IC50 [3, 14]: 9.61 ± 4.83 µM | IC50 [4, 13]: 5.15 ± 2.4 µM | IC50 [4, 14]: 4.32 ± 1.82 µM | IC50 [5, 11]: 24.4 ± 2.95 µM | IC50 [5, 12]: 36.1 ± 6.4 µM | IC50 [6, 11]: 51.8 ± 18.7 µM | IC50 [6, 12]: 51.1 ± 8.97 µM

Methyl 5-(S-ethylthiocarbamado)-2,4,7,8,9-penta-O-acetyl-3,5-dideoxy-3-fluoro-D-glycero-β-galacto-non-2-ulopyranosonate [Thiocarbamate 28]
IC50 [7, 15]: 1.68 µM | IC50 [7, 10]: 4.83 µM

Methyl 5-(methylsulfonamido)-2,4,7,8,9-penta-O-acetyl-3,5-dideoxy-3-fluoro-D-glycero-β-galacto-non-2-ulopyranosonate [Sulphonamide 30]
inhibition of sialylation compared with the acetate ([7]; FIG. 8): outperforming the acetate at various concentrations | IC50 [7, 15]: 9.9 µM

Methyl 5-N-ethylamidnocarbonyl)-2,4,7,8,9-penta-O-acetyl-3,5-dideoxy-3-fluoro-D-glycero-β-galacto-non-2-ulopyranosonate [Urea 29]
IC50 [7, 15]: 4.2 µM | IC50 [7, 10]: 4.89 µM
